Emax data for nine molecules are collected here from patent publication US20090170902A1, “COMPOUNDS WHICH POTENTIATE GLUTAMATE RECEPTOR AND USES THEREOF IN MEDICINE” (priority 2006, published 2009).

Structures are written as SMILES. Bounds are passed on as bounds.

This experiment deals with T1, human GluR2 flip (unedited) AMPA receptor subunit (Homo sapiens, UniProt P42262).
T1 construct: expressed in transfected cells
Description: Calcium influx fluorescence assay (FLUO4, FLIPR). The format is cell-based. The settings on record: HEK293; HEK 293 cells expressing human GluR2 flip (unedited); relative to fluorescence increase induced by cyclothiazide at maximum response; read-out: activity relative to cyclothiazide (at its maximal response). On the procedure: 384 well plates are prepared containing confluent monolayer of HEK 293 cells either stably expressing or transiently transfected with human GluR2 flip (unedited) AMPA receptor subunit. These cells form functional homotetrameric AMPA receptors. The tissue culture medium in the wells are discarded and the wells are each washed three times with standard buffer (80 μL) for the stable cell line (145 mM NaCl, 5 mM KCl, 1 mM MgCl2, 2 mM CaCl2, 20 mM N-[2-hydroxyethyl]-piperazine-N-[2-ethanesulfonic acid (HEPES), 5.5 mM glucose, pH 7.3) or with a Na-free buffer for the transient transfected cells (145 mM N-methyl-glucamine instead of NaCl). The plates are then incubated for 60 minutes in the dark with 2 μM FLUO4-AM dye (20 μL) (Molecular Probes, Netherlands) at room temperature to allow cell uptake of the FLUO-4AM, which is then converted to FLUO-4 by intracellular esterases which is unable to leave the cell. After incubation each well is washed three times with buffer (80 μL) (30 μL of buffer remained in each well after washing).
Compounds of the invention (or reference compounds such as cyclothiazide) are dissolved in dimethylsulfoxide (DMSO) at a stock concentration of 10 mM. These solutions are further diluted with DMSO using a Biomek FX (Beckman Coulter) in a 384 compound plate. Each dilution (1 μL) is transferred to another compound plate and buffer (50 μL) is added. An agonist stimulus (glutamate) plate is prepared by dissolving sodium glutamate in water to give a concentration of 100 mM. This solution is diluted with buffer to give a final concentration of 500 μM and dispensed into another 384-well plate (50 μL/well) using a Multidrop (Thermolabsystems).
The cell plate is then transferred into a fluorescence imaging plate based reader [such as the FLIPR384 (Molecular Devices)]. A baseline fluorescence reading is taken over a 10 to 240 second period, and then 10 μL from each plate containing a compound of the invention made up in standard buffer solution (in a concentration range from […]) is added (to give a final concentration in the range 30 μM to 3 pM). The fluorescence is read over 5 minute period. 500 μM glutamate solution (10 μL) is added (to give a final concentration of 100 μM). The fluorescence is then read over a 4 minute period. The activities of the compounds of the invention and reference compounds are determined by measuring peak fluorescence after the last addition. The activity is also expressed relative to the fluorescence increase induced by cyclothiazide at their maximum response (i.e. greater than 30 μM).
The assay described above is believed to have an effective limit of detection of a pEC50 in the region of 3.5-4.0 due to the limitations of compound solubility. The pEC50 result is generally considered to be accurate +/−0.3.

T1 sequence (P42262 25-883 isoform P42262-2 limits assumed): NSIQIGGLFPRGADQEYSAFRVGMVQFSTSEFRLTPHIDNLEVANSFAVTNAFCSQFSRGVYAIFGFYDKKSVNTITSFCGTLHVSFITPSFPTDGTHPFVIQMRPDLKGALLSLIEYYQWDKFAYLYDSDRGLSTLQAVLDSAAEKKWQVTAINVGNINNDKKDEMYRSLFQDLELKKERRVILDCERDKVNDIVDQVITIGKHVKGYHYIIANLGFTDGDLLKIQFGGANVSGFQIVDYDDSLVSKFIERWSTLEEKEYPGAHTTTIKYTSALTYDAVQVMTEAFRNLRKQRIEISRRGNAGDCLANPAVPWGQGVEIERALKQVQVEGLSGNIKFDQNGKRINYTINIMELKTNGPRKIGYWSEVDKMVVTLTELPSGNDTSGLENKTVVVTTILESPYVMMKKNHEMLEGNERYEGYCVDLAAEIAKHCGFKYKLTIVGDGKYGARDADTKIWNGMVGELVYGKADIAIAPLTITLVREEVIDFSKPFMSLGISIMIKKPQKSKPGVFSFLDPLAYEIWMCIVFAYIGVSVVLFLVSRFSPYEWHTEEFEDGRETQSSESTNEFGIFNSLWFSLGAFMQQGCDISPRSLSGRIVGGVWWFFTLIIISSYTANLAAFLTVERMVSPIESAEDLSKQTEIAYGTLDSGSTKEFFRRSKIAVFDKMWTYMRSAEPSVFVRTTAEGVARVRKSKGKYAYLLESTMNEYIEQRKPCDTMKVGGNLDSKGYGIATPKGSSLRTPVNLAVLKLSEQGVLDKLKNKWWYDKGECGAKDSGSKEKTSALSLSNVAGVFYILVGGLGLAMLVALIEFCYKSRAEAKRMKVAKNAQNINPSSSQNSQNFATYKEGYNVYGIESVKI

`CC(C)S(=O)(=O)N[C@@H]1CCO[C@@H]1c1ccc(-c2ccc(F)cn2)cc1` (relative stereo) [Example 3, N-{cis-2-[4-(5-fluoro-2-pyridinyl)phenyl]tetrahydro-3-furanyl}-2-propanesulfonamide]: the Emax was no less than 50%.
Take `Cc1ccc(-c2ccc([C@H]3OCC[C@H]3NS(=O)(=O)C(C)C)cc2)cn1` (relative stereo) [Example 2, N-{cis-2-[4-(6-methyl-3-pyridinyl)phenyl]tetrahydro-3-furanyl}-2-propanesulfonamide]: the Emax is no less than 50%.
As to `CC(C)S(=O)(=O)N[C@@H]1CCO[C@@H]1c1ccc(-c2ccc(C#N)cc2)cc1` (relative stereo) [Example 7, N-[cis-2-(4′-cyano-4-biphenylyl)tetrahydro-3-furanyl]-2-propanesulfonamide], the Emax is no less than 50%.
Regarding `Cc1cncc(-c2ccc([C@H]3OCC[C@H]3NS(=O)(=O)C(C)C)cc2)c1` (relative stereo) [Example 5, N-{cis-2-[4-(5-methyl-3-pyridinyl)phenyl]tetrahydro-3-furanyl}-2-propanesulfonamide], the Emax is no less than 50%.
As to `CC(C)S(=O)(=O)N[C@@H]1CCO[C@@H]1c1ccc(-c2ccc(F)cc2)cc1` (relative stereo) [Example 6, N-[cis-2-(4′-fluoro-4-biphenylyl)tetrahydro-3-furanyl]-2-propanesulfonamide], the Emax is no less than 50%.
For `CC(C)S(=O)(=O)N[C@@H]1CCO[C@@H]1c1ccc(-c2cccs2)cc1` (relative stereo) [Example 9, N-{cis-2-[4-(2-thienyl)phenyl]tetrahydro-3-furanyl}-2-propanesulfonamide], the Emax is no less than 50%.
Take `CC(=O)c1cccc(-c2ccc([C@H]3OCC[C@H]3NS(=O)(=O)C(C)C)cc2)c1` (relative stereo) [Example 8, N-[cis-2-(3′-acetyl-4-biphenylyl)tetrahydro-3-furanyl]-2-propanesulfonamide]: the Emax is no less than 50%.
The figure for `CC(C)S(=O)(=O)N[C@@H]1CCO[C@@H]1c1ccc(-c2cncc(F)c2)cc1` (relative stereo) [Example 4, N-{cis-2-[4-(5-fluoro-3-pyridinyl)phenyl]tetrahydro-3-furanyl}-2-propanesulfonamide] is no less than 50%.
Then `CC(C)S(=O)(=O)N[C@@H]1CCO[C@@H]1c1ccc(-c2ccc(F)nc2)cc1` (relative stereo) [Example 1, N-{cis-2-[4-(6-fluoro-3-pyridinyl)phenyl]tetrahydro-3-furanyl}-2-propanesulfonamide], with no less than 50%.
